This note sets out measurements from US4845215A, “Purine derivative” (Nippon Kayaku Kabushiki Kaisha, priority 1987, dated 1989).

In data set [1] the test system is Herpes Simplex virus type-II. The data set can be described thus: Antiviral activity by CPE (cytopathic effect) of Herpes Simplex virus type-II on Vevo cell. It is filed as cell-based. Conditions: read-out: Inhibition rate (%). On the procedure:
(a) Its antiviral activity was measured by observing CPE (cytopathic effect) of Herpes Simplex virus type-II on the Vevo cell originated from the kidney of Cercopithecus aetiops.
A general note: Protection from cytopathic effect is a common read-out in antiviral testing.

For data set [2], the system named is Human Immunodeficiency Virus (HIV). Description: Anti-HIV activity: development of virus antigen in MT-4 cell (fluorescent antibody technique). It is filed as cell-based. Conditions: for Development of virus antigen (%): 4 days, DMSO only 80 to 90%. The protocol: (b) Anti-"Human Immunodeficiency Virus (HIV)" activity.
(§1) About 100,000 cells/ml of MT-4 cell was introduced into a tray having 24 holes. Further, 100 microliters of a solution containing a predetermined quantity of the compound of the present invention was added, and then it was cultured in a 5% (v/v) carbon dioxide gas incubator at 37° C. for 5 hours. Subsequently, 10^3 to 10^4 infection units of HIV was added and cultured for 4 days. Then, a part of the culture fluid was applied to a slide glass and immobilized with acetone, and development of virus antigen was examined by the fluorescent antibody technique.
A serum of an AIDS patient was used as the primary antibody of the fluorescent antibody technique, and FITC-labelled anti-human IgG was used as its secondary antibody.
The compound of the present invention was used in the form of a solution
in DMSO. In DMSO itself only, development of virus antigen was 80 to 90%.

The subject of the next data set is MT-4 cell. Description: Cytopathic effect on MT-4 cell without virus (microscopy). It is filed as cell-based. Conditions: summary in words. The protocol: as §1, with “technique. Cytopathic effect of the compound of the invention on MT-4 cell was examined microscopically without adding virus.” for “technique.”
Data set [3] relates to T Lymphocyte (spleen cell of BALB/C mouse). Description: Inhibition of Blastogenesis Reaction of T Lymphocyte by Con A (3H-thymidine take-up). It is filed as cell-based. Conditions: Con A 5 micrograms/liter, 37° C., 72 hours. On the procedure:
Inhibition of Blastogenesis Reaction of T Lymphocyte by Con A.
Spleen cell of BALB/C mouse was dividingly poured into a microplate so that the number of cells came to 2×10^5 /0.2 ml/well. To each of all the wells other than control group was added the compound of the present invention having varied concentration. Further, 5 […] of Con A was added to all the wells. Then, the cell suspensions were cultured at 37° C. for 72 hours in 5% carbon dioxide gas incubator. The blastogenesis reaction of lymphocyte was examined by adding 1μCi/well of ^3 H-thymidine 6 hours before the completion of the culture and measuring its take-up into cultured cells by means of liquid scintillation counter. If the take-up count at the time when only Con A was added was expressed by Adpm and the take-up count at the time when Con A and drug were added was expressed by Bdpm, (1 - Bdpm/Adpm)×100 could be regarded as the inhibitory rate of each drug on blastogenesis.

Data set [4] is described as follows: Acute toxicity (LD50) on mouse. The note with it: in vivo, iv. It is filed as in vivo. The protocol:
(§2) (3) The acute toxicity (LD50) of the compound of formula (1) on mouse was 200 mg/kg (iv) or above which is weaker than the toxicities of various known nucleic acid type antibiotics.

A further data set relates to mouse. Description: Acute toxicity (LD50) on mouse. It is filed as in vivo. Conditions: iv. On the procedure: as §2
Data set [5] can be described thus: Solubilities into solvents. It is filed as physicochemical. The text has this: (8) Solubilities into solvents

The inhibition is the relative decrease from the control value, in per cent. The term IC50 denotes the concentration that inhibits the measured activity by half. By LD50 is commonly meant the dose at which mortality reaches 50%. On to `O=c1[nH]cnc2c1ncn2[C@@H]1O[C@H](CO)[C@H]1CO` [compound of formula (1), 9-[(2'R,3'R,4'S)-3',4'-bis-(hydroxymethyl)-2'-oxetanyl]-hypoxanthine], for which the inhibition at 31.3 µg/disc in data set [1] (31.3 mcg/well) is 8%. In addition, in data set [1] (62.5 mcg/well), the inhibition at 62.5 µg/disc was determined as 33%. Also, the inhibition at 125 µg/disc in data set [1] (125 mcg/well) was 75%. In addition, the figures for the “Development of virus antigen (%)” value in data set [2] (1 μg/ml), in data set [2] (10 μg/ml) and in data set [2] (100 μg/ml) were 40%, 10% and 2%, respectively. In data set [2] (summary in words), the “growth-inhibitory action of HIV” value was “marked”. Besides, the “cytopathic effect (summary)” value in the data set on MT-4 cell was “small”. For the same compound, the IC50 in data set [3] is 14.5 µg/mL. For the same compound, the 50% lethal dose (LD50) in data set [4] was at least 200 mg/kg. Further, the “acute toxicity compared with various known nucleic acid type antibiotics” value in the data set on mouse is given as “weaker”. Moreover, the Solubility entry is listed as “insoluble or only slightly soluble” in data set [5] (acetone); “insoluble or only slightly soluble” in data set [5] (benzene); “soluble” in data set [5] (dimethyl sulfoxide); “insoluble or only slightly soluble” in data set [5] (ether); “insoluble or only slightly soluble” in data set [5] (ethyl acetate); “soluble” in data set [5] (methanol). Moreover, the Solubility result in data set [5] (propanol) is “insoluble or only slightly soluble”; in data set [5] (water) it was “soluble”.
